# Measurements taken from patent publication US4758586A, “Indolyl compounds and hyposensitivity use thereof” (USV Pharmaceutical Corp., priority 1986, dated 1988).
# Legend:
# [1] = system: leukotriene C4 -induced contraction of guinea pig peripheral strips; test: SRS-A antagonists (SALTI): leukotriene C4-induced contraction of guinea pig peripheral lung strips; conditions: Cavia porcellus; 0.2 μM leukotriene C4-induced contraction; read-out: SALTI, I50 μM
# Procedure: Protocol for SRS-A (Slow-reacting Substance of Anaphylaxis Antagonists (SALTI)
# Peripheral strips of guinea pig lungs are prepared and hung in tissue baths (Metro #ME-5505, 10 ml) according to the published procedure (Pro. Nat'l. Acad. Sci., U.S.A. Volume 77, pp. 4354-4358, 1980). The strips are thoroughly rinsed in Assay Buffer and then connected with surgical silk thread to the support rods from the tissue baths. The rods are adjusted in the baths and the strips connected to the pressure transducers (Grass FT 103 or Gould UC-3). The tissue baths are aerated with 95% oxygen 5% carbon dioxide and maintained at 37° C. The Assay Buffer has been made as follows: For each liter of buffer the following are added to approximately 800 ml of water distilled in glass--6.87 g. NaCl, 0.4 g. KCl, […]. NaHCO3, 0.14 g. NaH2 PO4.H2 O, 0.21 g. MgSO4.7H2 O, and 2.0 g. D-glucose. Then a solution of 0.368 g. CaCl2.2H2 O in 100 ml glass-distilled water is slowly added to the buffer. Sufficient water is added to adjust the volume to one liter, and the solution is aerated with 95% oxygen--5% carbon dioxide. Usually 10 liters of buffer are used for an experiment with 4 tissues.
# After the tissues have been repeatedly washed and allowed to equilibrate in the tissue bath, they are challenged with 1 μM histamine. After maximum contractions have been obtained, the tissues are washed, and allowed to relax back to baseline tension. This histamine challenge procedure is repeated at least 1 to 2 more times to obtain a repeatable control response. The average response to 1 μM histamine for each tissue is used to normalize all other challenges.
# Responses of each tissue to a predetermined concentration of leukotriene are then obtained. Usually test compounds are examined initially at 30 μM on resting tension of the tissues without any added agonist or antagonist to determine if the compound has any possible intrinsic activity. The tissues are washed, and the test compound is added again. Leukotriene is added after the desired pre-incubation time. The intrinsic activity of the compounds, and their effect on leukotriene-induced contractions are then recorded.
# The concentration required for 50% inhibition of 0.2 μM leukotriene C4 -induced contraction of guinea pig peripheral strips for representative compounds of the present invention is shown in Table 3.
# Phospholipase A2 (PLA2) = molecular target: T1, Phospholipase A2 (PLA2) (Rattus norvegicus, UniProt P14423); test: In vitro assay for inhibitors of Phospholipase A2 (PLA2) from rat platelets; format: biochemical; conditions: pH 7.2, 37° C.; read-out: PLA2, I50
# T1 construct: obtained by aggregation of purified rat platelets; from tissue; host or cells: rat platelets (enzyme obtained by aggregation)
# T1 sequence (P14423 22-146): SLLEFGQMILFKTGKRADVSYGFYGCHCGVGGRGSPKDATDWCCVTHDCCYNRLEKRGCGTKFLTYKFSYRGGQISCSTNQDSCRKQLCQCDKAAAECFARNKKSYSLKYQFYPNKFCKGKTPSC
# From the text: B. In Vitro Assay For Inhibitors of Phospholipase A2 Assayed at pH 7.0 (PLA2)
# The PLA2 employed in this screen is obtained by aggregation of purified rat platelets. In the enzyme assay phosphatidylcholine having ^14 C-labeled palmitate residues at R1 and R2 is employed as substrate. PLA2 acts by cleaving the R2 fatty acid ester bond yielding free fatty acid and lysophosphatidyl choline as follows: [drawing 19]
# Following completion of the reaction, the assay medium is acidified and extracted with hexane, which takes up unreacted substrate and free fatty acid product. The hexane extract is passed over a short silica column which retains 99% of the phosphatidyl choline. The ^14 C-labeled palmitic acid is not retained (90% recovery in eluate) and is collected directly in scintillation counting vials. The released palmitic acid is conveniently quantitated by liquid scintillation spectrometry.
# The compounds were tested at 100 uM in a buffer containing 0.3 mM unlabeled phosphatidylcholine (PC), 20-30,000 cpm of ^14 C(CPC), […], 1 mM CaCl2 and 50 mM tris-HCl adjusted to pH 7.2 with 1N NaOH. […] The temperature of the buffer was maintained at a temperature of 37° C. The reaction was initiated by addition of the enzyme and it was terminated 30 minutes later by the addition of […] of 1N HCl.
# Following acidification, the samples were extracted with 2 ml of 2-propanol and 2 ml of hexane, vortexed and allowed to stand until the phases separated. Free fatty acids (FFA) and some unreacted substrate were taken up in the isopropanol-saturated hexane. The hexane phase of the extraction mixture was transferred to a short silica gel column which retained […] but not the FFA. The column effluent was collected directly in scintillation vials. The columns were washed once with an additional 2 ml of hexane. The radio labeled FFA were quantitated by liquid scintillation spectrometry.
# Phospholipase C (PLC) = test: In vitro assay for inhibitors of Phospholipase C (PLC) from rat platelets; format: biochemical; conditions: read-out: PLC, I50
# From the text: A. Protocol For In Vitro Assay For Inhibitors Of Phospholipase C (PLC)
# The PLC employed in this screen is obtained by aggregation of purified rat platelets in the presence of CaCl2 and ADP. In the enzyme assay phosphatidylinositol having ^3 H -labeled arachidonate residues at R2 is employed as substrate. PLC acts by cleaving the phosphate ester bond yielding diglyceride as follows: [drawing 18]
# Following completion of the reaction, the assay medium is acidified and extracted with hexane which takes up unreacted substrate and diglyceride. The hexane extract is passed over a short silica gel column which retains 99% of the phosphatidylinositol. The ^3 H-labeled diglyceride is not retained […]. The diglyceride is conveniently quantitated by liquid scintillation spectrometry.
# The compounds were tested at 300 u in a buffer containing 0.06 mM unlabeled phosphatidylcholine (PC), 20-30,000 cpm of (CPC), 150 mM NaCl, 5 mM CaCl2 and 50 mM tris(hydroxymethyl)methylaminopropanesulfonic acid buffer, adjusted to pH 9.0 with 1N NaOH. The temperature of the buffer was maintained at a temperature of 37° C. The reaction was initiated by addition of the enzyme and it was terminated 10 minutes later by addition of 1 ml of 1N HCl.
# Following acidification, the samples were extracted with 2 ml of isopropyl alcohol and 2 ml of hexane, vortexed and allowed to stand until the phases separate. […] and some unreacted substrate were taken up in the isopropanol-saturated hexane. The hexane phase of the extraction mixture was transferred to a short silica gel column which retains unreacted phosphatidylinositol, but not the 3H-diglyceride. The column effluent was collected directly in scintillation vials. The columns were washed once with additional 2 ml of hexane. The radiolabelled diglycerides were quantitated by liquid scintillation.
structure (smiles),measurement,setting,value
"Cc1c(C=CC=CC(=O)O)c2ccccc2n1Cc1ccccc1 [Example 12, 5-(1-Benzyl-2-methylindol-3-yl)-2,4-Pentadienoic Acid]",IC50,[1],15 µM
same,IC50,Phospholipase A2 (PLA2),37 µM
same,IC50,Phospholipase C (PLC),40 µM
